This is an account of results in publication PMC5391474, “Investigation of the Role of Protein Kinase D in Human Rhinovirus Replication” (Journal of Virology, 2017).

What all share (test): biochemical
What all share (set-up): in vitro kinase selectivity panel, protein and lipid kinases, single concentration, ATP at Km
Conditions in all cases: ATP at Km

One assay addresses Blk(m) (Mus musculus, UniProt P16277). The gist of the method: (§1)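 Single-point screen against a protein and lipid kinase panel: inhibitor at 1 μM. ATP concentration for every kinase equivalent to its Km.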
The target in another assay is EphA7(h) (Homo sapiens, UniProt Q15375). The gist of the method: as §1
Another assay concerns the target ErbB4(h) (Homo sapiens, UniProt Q15303). The method in brief: as §1
For another assay, the target named is T1, Fms(h) (Homo sapiens, UniProt P07333).
T1 construct: gene CSF1R
The method in brief: as §1

The next assay concerns the target T2, IR(h) (Homo sapiens, UniProt P06213).
T2 construct: gene INSR
The gist of the method:
as §1

The target of a further assay is Met(h) (Homo sapiens, UniProt P08581). The gist of the method:
as §1

The target in a further assay is T3, PDGFRα(h) (Homo sapiens, UniProt P16234).
T3 construct: gene PDGFRA
The gist of the method:
as §1

A further assay concerns the target T4, PDGFRβ(h) (Homo sapiens, UniProt P09619).
T4 construct: gene PDGFRB
The method in brief: as §1

In the next assay the target is T5, PIK3CA / p85 (h) (Homo sapiens, UniProt P42336).
T5 construct: p110alpha/p85
The gist of the method: as §1

The target in another assay is T6, PKCα(h) (Homo sapiens, UniProt P17252).
T6 construct: gene PRKCA
The gist of the method:
as §1

A further assay addresses T7, PKCθ(h) (Homo sapiens, UniProt Q04759).
T7 construct: gene PRKCQ
The method in brief:
as §1

In another assay the target is T8, ROCK-I(h) (Homo sapiens, UniProt Q13464).
T8 construct: gene ROCK1
The method in brief: as §1

In another assay the target is T9, Snk(h) (Homo sapiens, UniProt Q9NYY3).
T9 construct: gene PLK2
The method in brief:
as §1

Another assay addresses T10, Tie2 (h) (Homo sapiens, UniProt Q02763).
T10 construct: gene TEK
The method in brief: as §1

For a further assay, the target named is T11, ZAP-70(h) (Homo sapiens, UniProt P43403).
T11 construct: gene ZAP70
The gist of the method: as §1

A further assay addresses T12, ZIPK(h) (Homo sapiens, UniProt O43293).
T12 construct: gene DAPK3
The gist of the method: as §1

The target in a further assay is T13, p70S6K(h) (Homo sapiens, UniProt P23443).
T13 construct: gene RPS6KB1
The method in brief:
as §1

T3 sequence (P16234 whole entry): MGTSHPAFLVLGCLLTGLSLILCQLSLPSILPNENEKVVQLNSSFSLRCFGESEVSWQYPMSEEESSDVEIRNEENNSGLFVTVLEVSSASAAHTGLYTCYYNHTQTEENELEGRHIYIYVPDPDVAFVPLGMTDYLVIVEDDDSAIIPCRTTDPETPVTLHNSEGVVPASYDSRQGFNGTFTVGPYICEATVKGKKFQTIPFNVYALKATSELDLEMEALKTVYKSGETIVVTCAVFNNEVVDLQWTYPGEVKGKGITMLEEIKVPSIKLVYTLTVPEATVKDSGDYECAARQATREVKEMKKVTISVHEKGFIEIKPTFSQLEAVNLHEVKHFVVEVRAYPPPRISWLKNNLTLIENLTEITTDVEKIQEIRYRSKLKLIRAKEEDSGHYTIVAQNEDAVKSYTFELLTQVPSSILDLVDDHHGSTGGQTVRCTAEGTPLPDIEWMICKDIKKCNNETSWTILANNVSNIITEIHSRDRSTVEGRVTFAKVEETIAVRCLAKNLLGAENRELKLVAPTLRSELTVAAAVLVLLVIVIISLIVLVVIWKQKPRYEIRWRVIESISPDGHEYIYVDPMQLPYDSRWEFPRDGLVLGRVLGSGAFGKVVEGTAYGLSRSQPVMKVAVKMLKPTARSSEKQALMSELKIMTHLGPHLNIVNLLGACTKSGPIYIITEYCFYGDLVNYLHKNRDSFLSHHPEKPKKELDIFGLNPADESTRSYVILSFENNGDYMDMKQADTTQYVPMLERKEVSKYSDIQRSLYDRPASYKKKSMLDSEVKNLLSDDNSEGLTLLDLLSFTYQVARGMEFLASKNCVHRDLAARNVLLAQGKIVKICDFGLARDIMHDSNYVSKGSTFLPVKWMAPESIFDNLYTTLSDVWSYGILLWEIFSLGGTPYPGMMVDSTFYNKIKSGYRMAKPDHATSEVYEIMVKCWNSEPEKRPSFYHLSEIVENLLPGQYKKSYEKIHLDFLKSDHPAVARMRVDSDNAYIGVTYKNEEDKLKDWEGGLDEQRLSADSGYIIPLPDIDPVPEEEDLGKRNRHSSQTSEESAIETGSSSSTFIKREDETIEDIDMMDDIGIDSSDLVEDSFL
T4 sequence (P09619 whole entry): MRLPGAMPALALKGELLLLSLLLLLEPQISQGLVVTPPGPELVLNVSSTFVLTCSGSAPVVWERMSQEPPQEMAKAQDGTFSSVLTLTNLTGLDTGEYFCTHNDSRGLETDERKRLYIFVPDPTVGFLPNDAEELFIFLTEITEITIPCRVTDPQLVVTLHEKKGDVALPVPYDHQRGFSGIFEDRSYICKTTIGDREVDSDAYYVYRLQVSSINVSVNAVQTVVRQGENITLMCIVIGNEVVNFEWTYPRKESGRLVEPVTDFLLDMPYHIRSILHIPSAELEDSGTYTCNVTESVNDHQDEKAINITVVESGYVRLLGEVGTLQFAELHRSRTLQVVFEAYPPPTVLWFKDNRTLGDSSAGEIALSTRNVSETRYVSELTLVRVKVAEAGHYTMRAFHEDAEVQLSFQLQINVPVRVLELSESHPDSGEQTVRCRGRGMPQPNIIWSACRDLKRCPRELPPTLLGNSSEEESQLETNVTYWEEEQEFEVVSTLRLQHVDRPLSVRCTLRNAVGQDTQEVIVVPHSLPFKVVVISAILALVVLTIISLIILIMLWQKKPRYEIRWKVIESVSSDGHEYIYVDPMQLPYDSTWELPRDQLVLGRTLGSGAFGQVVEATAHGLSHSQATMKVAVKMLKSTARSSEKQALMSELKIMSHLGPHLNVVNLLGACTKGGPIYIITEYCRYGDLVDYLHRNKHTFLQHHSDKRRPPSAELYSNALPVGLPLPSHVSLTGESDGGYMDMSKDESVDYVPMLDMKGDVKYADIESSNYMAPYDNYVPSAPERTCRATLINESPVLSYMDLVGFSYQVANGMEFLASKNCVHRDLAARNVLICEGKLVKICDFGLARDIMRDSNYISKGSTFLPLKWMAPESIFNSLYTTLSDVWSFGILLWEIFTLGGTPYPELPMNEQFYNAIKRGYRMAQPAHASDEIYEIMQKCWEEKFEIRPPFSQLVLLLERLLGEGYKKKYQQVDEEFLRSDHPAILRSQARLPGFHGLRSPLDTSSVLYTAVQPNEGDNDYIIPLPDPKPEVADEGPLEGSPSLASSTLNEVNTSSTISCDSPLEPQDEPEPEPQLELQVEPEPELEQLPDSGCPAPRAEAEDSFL
T5 sequence (P42336 whole entry): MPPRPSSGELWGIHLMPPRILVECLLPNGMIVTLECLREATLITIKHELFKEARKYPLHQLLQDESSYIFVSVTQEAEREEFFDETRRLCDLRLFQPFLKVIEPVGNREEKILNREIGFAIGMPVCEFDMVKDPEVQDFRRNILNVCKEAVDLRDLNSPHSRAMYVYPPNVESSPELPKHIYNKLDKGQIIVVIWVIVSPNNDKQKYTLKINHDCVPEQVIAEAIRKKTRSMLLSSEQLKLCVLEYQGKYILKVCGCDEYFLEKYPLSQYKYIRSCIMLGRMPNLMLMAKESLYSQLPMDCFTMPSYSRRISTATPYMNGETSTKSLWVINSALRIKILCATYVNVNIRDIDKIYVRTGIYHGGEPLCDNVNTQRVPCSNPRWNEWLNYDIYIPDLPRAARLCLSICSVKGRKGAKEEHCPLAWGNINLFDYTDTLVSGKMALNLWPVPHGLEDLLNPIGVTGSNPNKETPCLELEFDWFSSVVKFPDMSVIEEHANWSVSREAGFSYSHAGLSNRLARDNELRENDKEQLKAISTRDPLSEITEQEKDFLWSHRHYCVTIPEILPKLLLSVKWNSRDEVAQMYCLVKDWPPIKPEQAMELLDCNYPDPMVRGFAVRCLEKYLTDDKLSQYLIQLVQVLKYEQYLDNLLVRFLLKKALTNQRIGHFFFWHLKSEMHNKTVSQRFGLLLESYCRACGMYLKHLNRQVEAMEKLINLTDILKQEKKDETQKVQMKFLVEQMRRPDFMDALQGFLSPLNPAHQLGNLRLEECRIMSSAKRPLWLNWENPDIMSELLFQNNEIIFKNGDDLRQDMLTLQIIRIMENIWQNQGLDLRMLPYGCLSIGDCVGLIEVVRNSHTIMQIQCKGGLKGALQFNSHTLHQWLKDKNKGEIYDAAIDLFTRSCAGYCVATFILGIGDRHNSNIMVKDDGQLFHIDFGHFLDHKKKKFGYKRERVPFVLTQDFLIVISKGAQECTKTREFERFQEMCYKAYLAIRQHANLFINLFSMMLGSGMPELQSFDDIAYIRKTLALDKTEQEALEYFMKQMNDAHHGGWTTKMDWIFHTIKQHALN
T5 sequence (P27986 whole entry partner): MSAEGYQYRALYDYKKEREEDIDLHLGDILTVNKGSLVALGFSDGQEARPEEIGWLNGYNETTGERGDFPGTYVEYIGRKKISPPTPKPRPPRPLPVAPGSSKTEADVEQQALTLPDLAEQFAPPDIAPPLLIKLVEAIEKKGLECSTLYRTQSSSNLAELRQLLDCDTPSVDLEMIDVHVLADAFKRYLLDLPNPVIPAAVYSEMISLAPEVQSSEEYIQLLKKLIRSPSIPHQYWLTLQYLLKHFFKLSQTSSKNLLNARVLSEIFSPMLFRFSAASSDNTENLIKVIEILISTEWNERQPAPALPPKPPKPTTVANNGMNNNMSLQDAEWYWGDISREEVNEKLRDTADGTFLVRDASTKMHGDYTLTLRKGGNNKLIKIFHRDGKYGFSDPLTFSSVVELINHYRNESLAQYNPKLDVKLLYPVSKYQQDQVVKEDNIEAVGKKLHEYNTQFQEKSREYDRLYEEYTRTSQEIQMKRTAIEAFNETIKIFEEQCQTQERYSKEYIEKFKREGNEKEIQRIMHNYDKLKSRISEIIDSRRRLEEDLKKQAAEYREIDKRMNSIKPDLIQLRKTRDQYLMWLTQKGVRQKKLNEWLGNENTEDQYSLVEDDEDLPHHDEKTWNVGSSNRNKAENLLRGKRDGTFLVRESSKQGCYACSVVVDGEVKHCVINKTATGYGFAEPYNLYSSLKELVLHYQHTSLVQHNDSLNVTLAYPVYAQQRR

For `CC[C@@H](N)CNc1ccnc(-c2cc(-c3cnn(C)c3)ccc2O)n1` [CRT0066101], the inhibition at 1 µM at Blk(m) was 12%; against EphA7(h), -9%; against ErbB4(h), 3%; against Fms(h), 12%; on IR(h) it was -22%; against Met(h) it was 12%. The inhibition at 1 µM at PDGFRα(h) was 14%; against PDGFRβ(h), -1%; on PIK3CA / p85 (h) it was -1%; at PKCα(h), 4%; on PKCθ(h) it was 6%; against ROCK-I(h), 4%. In addition, the inhibition at 1 µM is -1% against Snk(h); 4% against Tie2 (h); -19% at ZAP-70(h); 7% at ZIPK(h); 31% against p70S6K(h).
